The test system of this experiment is Phytophthora infestans. It counts as in vivo. The settings on record: individual active compound, tomato leaves, infected next day, assessed after 6 days.

Where two headings read alike, the source gives them in different places.

On to `CC1CCN(c2c(-c3c(F)cccc3Cl)c(Cl)nc3ncnn23)CC1` [A], for which the “Efficacy in % of the untreated control” value (0.25 ppm in the spray liquor) is recorded as 0% and the “Efficacy in % of the untreated control” value (16 ppm in the spray liquor) was 0%.
For `C[C@H](Nc1c(-c2c(F)cc(F)cc2F)c(Cl)nc2ncnn12)C(F)(F)F` [B], the “Efficacy in % of the untreated control” value amounted to 0% (0.25 ppm in the spray liquor) and 0% (16 ppm in the spray liquor).
`CNC(=O)/C(=N/OC)c1ccccc1COc1cc(C)ccc1C` [I, dimoxystrobin]: the “Efficacy in % of the untreated control” value (0.25 ppm in the spray liquor) is given as 0% and the “Efficacy in % of the untreated control” value (1 ppm in the spray liquor) turned out to be 56%.
On to `CC1CCN(c2c(-c3c(F)cc(F)cc3F)c(Cl)nc3ncnn23)CC1` [II, 5-chloro-7-(4-methylpiperidin-1-yl)-6-(2,4,6-trifluorophenyl)-[1,2,4]tri-azolo[1,5-a]pyrimidine], for which the “Efficacy in % of the untreated control” value (0.25 ppm in the spray liquor) amounted to 0% and the “Efficacy in % of the untreated control” value (16 ppm in the spray liquor) is given as 0%.

The values are drawn from US20060281766A1 (priority 2003, published 2006).
